Assay [1] concerns the target T1, human KEAP1 (N-term, residues 321-609) (Homo sapiens, UniProt Q14145). Kind of assay: biochemical.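 Note: fluorescence polarization competition assay of Kelch domain binding to NRF2, 12-point 1:3 dilution series from 10 µM, read after 1 h at room temperature, floor 10 nM.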
In assay [2] the test system is NQO1 mRNA in BEAS-2B cells. Kind of assay: Beas2B NQO1 mRNA cell based assay. As to conditions: 24 h compound treatment, increase in NQO1 mRNA vs vehicle (0.1% DMSO), read-out: EC50. Further details: species or system human. The method, boiled down: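 Relative NQO1 transcript level derived by ΔΔCT with human β-actin as internal control, using direct-lysate one-step RT-qPCR. Cells were BEAS-2B, plated overnight then treated with compound for 24 h.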

Assay [3] deals with T1, human KEAP1 (N-term, residues 321-609).

Where two headings read alike, the source gives them in different places.

Usually IC50 stands for the concentration needed to halve the response being measured. The low end stands for greater potency, the high end for weaker potency. What is called EC50 is the concentration needed to bring the measured effect to its halfway point.

T1 sequence (Q14145 321-609): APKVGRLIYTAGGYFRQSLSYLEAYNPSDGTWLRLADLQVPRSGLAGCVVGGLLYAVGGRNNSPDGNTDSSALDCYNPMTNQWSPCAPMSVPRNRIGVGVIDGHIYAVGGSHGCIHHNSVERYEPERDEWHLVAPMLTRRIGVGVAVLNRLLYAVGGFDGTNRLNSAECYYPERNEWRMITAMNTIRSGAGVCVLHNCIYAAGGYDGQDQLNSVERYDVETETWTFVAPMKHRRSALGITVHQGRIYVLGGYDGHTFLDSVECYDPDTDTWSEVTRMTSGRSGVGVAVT

For `Cn1c(COc2ccc(Cl)c3c2[C@@H](CN2CC4(CC4)CC2=O)N(C(=O)[C@@H]2CCCC[C@]2(C)C(=O)O)CC3)cccc1=O` [Example 214, (1S,2R)-2-((S)-5-chloro-8-((1-methyl-6-oxo-1,6-dihydropyridin-2-yl)methoxy)-1-((6-oxo-5-azaspiro [2.4]heptan-5-yl)methyl)-1,2,3,4-tetrahydroisoquinoline-2-carbonyl)-1-methylcyclohexane-1-carboxylic acid], the half-maximal inhibitory concentration (IC50) in assay [1] was 5.2 nM. Moreover, the half-maximal effective concentration (EC50) in assay [2] (Homo sapiens, BEAS-2B, 24 h) was 41 nM.
The like results for `Cn1nnc(COc2ccc(Cl)c3c2[C@@H](CN2CC4(CC4)CC2=O)N(C(=O)[C@@H]2CC(F)(F)CC[C@]2(C)C(=O)O)CC3)c1C(F)F` [Example 217, (1S,2R)-2-((S)-5-chloro-8-((5-(difluoromethyl)-1-methyl-1H-1,2,3-triazol-4-yl)methoxy)-1-((6-oxo-5-azaspiro[2.4]heptan-5-yl)methyl)-1,2,3,4-tetrahydroisoquinoline-2-carbonyl)-4,4-difluoro-1-methylcyclohexane-1-carboxylic acid] were, in that order, 9.8 nM and 43 nM.
The like results for `Cn1nnc(COc2ccc(Cl)c3c2[C@@H](CN2CC4(CC4)CC2=O)N(C(=O)[C@@H]2C[C@@H](F)CC[C@]2(C)C(=O)O)CC3)c1C(F)F` [Example 218, (1S,2R,4S)-2-((S)-5-chloro-8-((5-(difluoromethyl)-1-methyl-1H-1,2,3-triazol-4-yl)methoxy)-1-((6-oxo-5-azaspiro[2.4]heptan-5-yl)methyl)-1,2,3,4-tetrahydroisoquinoline-2-carbonyl)-4-fluoro-1-methylcyclohexane-1-carboxylic acid] were, in that order, 6.8 nM and 0.98 nM.
In assay [1], `[2H][C@@H]1CC[C@](C)(C(=O)O)[C@H](C(=O)N2CCc3c(Cl)ccc(OCc4nnn(C)c4C(F)F)c3[C@H]2CN2CC3(CC3)CC2=O)C1` [Example 219, (1S,2R,4R)-2-((S)-5-chloro-8-((5-(difluoromethyl)-1-methyl-1H-1,2,3-triazol-4-yl)methoxy)-1-((6-oxo-5-azaspiro[2.4]heptan-5-yl)methyl)-1,2,3,4-tetrahydroisoquinoline-2-carbonyl)-1-methylcyclohexane-1-carboxylic-4-d acid] gave a concentration for half-maximal inhibition (IC50) of 5.3 nM. For the same compound, the half-maximal effective concentration (EC50) in assay [2] (Homo sapiens, BEAS-2B, 24 h) stood at 0.18 nM.
Turning to `Cn1nnc(COc2ccc(Cl)c3c2[C@@H](CN2CC4(CC4)CC2=O)N(C(=O)[C@@H]2C[C@@H](O)CC[C@]2(C)C(=O)O)CC3)c1C(F)F` [Example 220, (1S,2R,4S)-2-((S)-5-chloro-8-((5-(difluoromethyl)-1-methyl-1H-1,2,3-triazol-4-yl)methoxy)-1-((6-oxo-5-azaspiro[2.4]heptan-5-yl)methyl)-1,2,3,4-tetrahydroisoquinoline-2-carbonyl)-4-hydroxy-1-methylcyclohexane-1-carboxylic acid], in assay [1], 7 nM corresponded to half-maximal inhibition (IC50). The EC50 in assay [2] (Homo sapiens, BEAS-2B, 24 h) is 15 nM.
As for `Cn1nnc(COc2ccc(Cl)c3c2[C@@H](CN2CC4(CC4)CC2=O)N(C(=O)[C@@H]2CC[C@H](O)C[C@]2(C)C(=O)O)CC3)c1C(F)F` [Example 223, (1S,2R,5S)-2-((S)-5-chloro-8-((5-(difluoromethyl)-1-methyl-1H-1,2,3-triazol-4-yl)methoxy)-1-((6-oxo-5-azaspiro[2.4]heptan-5-yl)methyl)-1,2,3,4-tetrahydroisoquinoline-2-carbonyl)-5-hydroxy-1-methylcyclohexane-1-carboxylic acid], in assay [1], half-maximal inhibition (IC50) required 5 nM. Further, in assay [2] (Homo sapiens, BEAS-2B, 24 h), the EC50 was 15 nM.
The like results for `Cn1nnc(COc2ccc(Cl)c3c2[C@@H](CN2CC4(CC4)CC2=O)N(C(=O)[C@@H]2CC[C@@H](O)C[C@]2(C)C(=O)O)CC3)c1C(F)F` [Example 224, (1S,2R,5R)-2-((S)-5-chloro-8-((5-(difluoromethyl)-1-methyl-1H-1,2,3-triazol-4-yl)methoxy)-1-((6-oxo-5-azaspiro[2.4]heptan-5-yl)methyl)-1,2,3,4-tetrahydroisoquinoline-2-carbonyl)-5-hydroxy-1-methylcyclohexane-1-carboxylic acid] were, in that order, 5.8 nM and 42 nM.
The compound `Cn1nnc(COc2ccc(Cl)c3c2[C@@H](CN2CC4(CC4)CC2=O)N(C(=O)[C@@H]2C[C@H](O)CC[C@]2(C)C(=O)O)CC3)c1C(F)F` [Example 225, (1S,2R,4R)-2-((S)-5-chloro-8-((5-(difluoromethyl)-1-methyl-1H-1,2,3-triazol-4-yl)methoxy)-1-((6-oxo-5-azaspiro[2.4]heptan-5-yl)methyl)-1,2,3,4-tetrahydroisoquinoline-2-carbonyl)-4-hydroxy-1-methylcyclohexane-1-carboxylic acid] had an IC50 in assay [1] of 6.5 nM. Also, the EC50 in assay [2] (Homo sapiens, BEAS-2B, 24 h) worked out at 110 nM.
For `Cn1nnc(COc2ccc(Cl)c3c2[C@@H](CN2CC4(CC4)CC2=O)N(C(=O)[C@@H]2CCCO[C@@H]2C(=O)O)CC3)c1C(F)F` [Example 226, (2S,3R)-3-((S)-5-chloro-8-((5-(difluoromethyl)-1-methyl-1H-1,2,3-triazol-4-yl)methoxy)-1-((6-oxo-5-azaspiro[2.4]heptan-5-yl)methyl)-1,2,3,4-tetrahydroisoquinoline-2-carbonyl)tetrahydro-2H-pyran-2-carboxylic acid] the same measures were 5 nM and 14 nM.
As to “(1S,2R)-2-((S)-8- ((2,5-bis (difluoromethyl)-2H- 1,2,3-triazol-4-yl) methoxy)-5-chloro-1 ((2-oxopyrrolidin-1- yl)methyl)-1,2,3,4- tetrahydroisoquinoline- 2-carbonyl)-1- methylcyclohexane-1- carboxylic acid [Example 139]”, the concentration for half-maximal inhibition (IC50) in assay [3] was determined as 5.7 nM. For the same compound, in assay [2], the concentration giving a half-maximal response (EC50) stood at 140 nM.
As to “(1S,2R)-2-((S)- 8-((1,5-bis (difluoromethyl)- 1H-1,2,3-triazol-4-yl) methoxy)-5-chloro-1- ((2-oxopyrrolidin-1- yl)methyl)-1,2,3,4- tetrahydroisoquinoline- 2-carbonyl)-1- methylcyclohexane- 1-carboxylic acid [Example 193]”, the IC50 in assay [3] turned out to be 7.7 nM. Also, in assay [2], the EC50 amounted to 1.8 nM.

(Values after patent US12098148B2, “Therapeutic compounds” (C4X Discovery Limited, priority 2018, dated 2024).)
